What all share (format): cell-based
The test system of one experiment is SKNO-1 (AML1-ETO). The experiment in a line: Cell growth inhibition assay, SKNO-1 (AML1-ETO). The settings on record: 168 h, 7 days. The protocol: (§1) Tumor cell lines are plated onto 96-well, black wall poly-D-lysine plates (Corning #354640), and incubated at 37° C., 5% CO2 for 18-24 hours. Compound was added at 1:3 dilutions in DMSO and cells were incubated at 37° C., 5% CO2 for 7 days. For adherent cell lines, cells were fixed and stained with propidium iodide and scanned on Acumen (channel 3 setting). For suspension cell lines, cell growth was monitored using Cell Titer-Glo reagent.

The next experiment deals with OCI-AML3. Nature of the experiment: Cell growth inhibition assay, OCI-AML3. The settings on record: Homo sapiens, OCI-AML-3, 168 h; OCI-AML3, 7 days. The protocol: as §1
Experiment [1] relates to 22Rv1 prostate cancer cells. Nature of the experiment: Cell proliferation assay in 22Rv1. The conditions noted are these: 22Rv1, 7 days. As for the experimental part: The purpose of the following cell proliferation assay is to detect whether the compound of Example 2 and combinations thereof have an effect on cell proliferation.
22Rv1 (purchased from ATCC CRL-2505) cells are seeded at a density of 1,000 cells per well in RMPI 10% FBS (20 μL volume) into a clear bottom 384-well cell culture plate. The plate is incubated at 37° C. and 5% CO2. The cells are dosed the following day with the compound of Example 2 and the compound of Example 2 in combination with the known anti-cancer therapeutics found in the table below. An Echo 555 acoustic dispenser is used to prepare serial dilutions (1:3) of the compound of Example 2, and combinations thereof, in concentrations ranging from 60 μM to 0.003 μM. The cells are then dosed by addition of 5 μL from the serial dilution plate to the cell plate, producing a final DMSO concentration of 0.2% with a final concentration dose ranging from 20 μM to 0.001 μM for the compound of Example 2 and combinations thereof.
Media containing 0.2% DMSO is used for the maximum point and 2 μM staurosporine in the growth media containing 0.2% DMSO is used for the minimum point. After dosing with the compound of Example 2 and combinations thereof, the cell plates are incubated at 37° C. and 5% CO2. Seven days after test compound addition, plates are removed from the incubator and cold EtOH (96%, 65 μL) is added to each well. After 30 minutes, the media is removed and RNase (20 μL, 50 μg/mL) (Sigma) and a 1:1000 propidium iodide dilution in PBS are added to each well. The plates are sealed and incubated for 1 hour at room temperature and preserved from light. Plates are then scanned with ACUMEN EXPLORER™ [Laser-scanning fluorescence microplate cytometer manufactured by TTP LABTECH LTD]. The number of 22Rv1 cells is evaluated through an estimated number of cells, calculated through the area parameter (ratio of total area of the total cells population), a designated range of peak intensity of FL-3 (PI), and the mean area of the single cell population defined by perimeter. Data is then processed through an NGR screening tool. Data is analyzed using a 4-parameter nonlinear logistic equation (four-parameter logistic concentration-response curve): Y=bot+[(top−bot)/1+(x/IC50)slope] where Y=% inhibition, X=concentration yielding y % inhibition, “bot”=minimum value of y attained by curve, “top”=maximum value of y attained by curve, and “slope”=steepness of curve at IC50. % Inh=[(median Max−x/median Max−median Min)]·100.

“And” between values parts separate entries of the source, which are not always exact repeats. Identical values can stand only once.

A word on the IC50: it is the concentration that gives 50% inhibition. The low end stands for greater potency, the high end for weaker potency. As usually defined, the inhibition is the change of the read-out against control, counted positive when it falls. Consider `CCNC(=O)c1ccc(-c2cc3cccc(-c4nn(C)c5c4CN(C)C(=O)CC5)c3cn2)cn1` [Example 2, 5-[8-(1,5-Dimethyl-6-oxo-7,8-dihydro-4H-pyrazolo[4,3-c]azepin-3-yl)-3-isoquinolyl]-N-ethyl-pyridine-2-carboxamide], for which the IC50 with SKNO-1 (AML1-ETO) is 18 nM; in the experiment on OCI-AML3 it was 226 nM. Besides, the “Cell Proliferation % Inhibition” value is 9.62% in experiment [1] (single agent at 120 nM, 0.12 µM); 18.68% and 31.53% in experiment [1] (single agent at 370 nM, 0.37 µM). For the same compound, in experiment [1] (Homo sapiens, 22Rv1, 168 h, single agent at 120 nM), the inhibition at 0.12 µM was 17.4%. Also, the inhibition at 0.37 µM in experiment [1] (Homo sapiens, 22Rv1, 168 h, single agent at 370 nM) amounted to 35.4%. In experiment [1] (Homo sapiens, 22Rv1, 168 h, single agent at 740 nM), the inhibition at 0.74 µM amounted to 12.2%. In experiment [1] (Homo sapiens, 22Rv1, 168 h, single agent at 2.2 μM), the inhibition at 2.2 µM stood at 19.3%. Moreover, the inhibition at 3.3 µM in experiment [1] (Homo sapiens, 22Rv1, 168 h, single agent at 3.3 μM) was 46.3%.
